This series can be described thus: gradient 5% acetonitrile 3 min, to 50% in 2 min, to 85% in 15 min, held 3 min, 100 µL/min. The following applies: column: Zorbax Extend-C18 2.1 x 50 mm; eluents: water / acetonitrile, 0.1% formic acid. Summed up:
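Over 3 months, pure standards in mixtures of ~100 molecules were run by HPLC coupled to a quadrupole time-of-flight mass spectrometer in positive and negative ionization mode. The column was a Zorbax Extend-C18 (2.1 × 50 mm, 1.8 μm) at 100 μL/min, eluted with water and acetonitrile each holding 0.1% formic acid, with 40 μL dead and 900 μL dwell volumes. Retention time was determined from adduct peaks chosen by software and checked manually.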
In the case of `Cc1cc(C)c(CNC(=O)C2CCN(c3cnc4nccnc4c3)CC2)c(C)c1`, the RP-LC retention time stood at 793 s.
To `CC(=O)N1c2ccc(S(=O)(=O)N3CCCC3)cc2CC1C(=O)NCCN1CCCCC1` (stereo not drawn) belongs 592 s; to `Cc1ccc(-c2cn3ccn(-c4cccc(F)c4)c(=O)c3n2)c(C)c1`, 900 s; to `Cc1cc(Cl)ccc1NC(=O)Cn1cccc1-c1nnc(C2CCC2)o1`, 1040 s.
In the case of `CCc1nc2c(=O)n(CC(=O)N3CCN(c4ccc(Cl)cc4)CC3)nc(C)c2s1` it was 854 s.
In the case of `CCOC(=O)C(=O)NCc1n[nH]c(=O)c2ccccc12` it was 579 s.
`Cc1ccc(CN2CCC(N3CC4(CCCCC4)C3c3ccncc3)CC2)o1` (stereo not drawn): the RP-LC retention time is 591 s.
In the case of `CCN(CCN(C)C)c1ccc(C(=O)O)cc1NS(=O)(=O)c1ccc(C)cc1` it was 623 s; in that of `COc1cccc(-c2ccc(=O)n(Cc3nc(-c4ccccc4Br)no3)n2)c1`, 997 s; in that of `COc1cccc(NS(=O)(=O)c2cccc(-c3nc(-c4ccccc4)no3)c2)c1`, 1140 s.
In the case of `CCC(=O)N1CCc2cc(C(=O)N3CCN(Cc4ccc5c(c4)OCO5)CC3)ccc21` it was 611 s.
To `CC(Oc1ccc(-c2cnc3ccccc3n2)cc1)C(=O)N1CCOCC1` (stereo not drawn) belongs 751 s.
Consider `CNC(=O)c1cc(-c2ccccc2Cl)n[nH]1`, for which the RP-LC retention time turned out to be 668 s.
In the case of `Cc1c(Cl)cccc1N1C(=O)CN(S(C)(=O)=O)CC1(C)C(=O)NCc1ccccc1` (stereo not drawn) it was 850 s; in that of `CCOCCCNS(=O)(=O)c1cccc(-c2nc(-c3ccc(C)cc3)no2)c1`, 1160 s.
In the case of `O=c1ccc(-c2ccccc2)nn1CCc1nc(-c2ccc3c(c2)OCO3)no1` it was 900 s; in that of `CCOc1ccccc1NC(=O)N1CCc2nc(OCCOC)ccc2C1`, 871 s; in that of `O=C(CN1CCC(c2nnc(-c3ccc(F)cc3)o2)CC1)Nc1cccnc1`, 539 s.
To `Cc1cc(-c2nnc(-c3ccco3)o2)c(C)n1CC(=O)Nc1ccc(F)cc1` belongs 858 s; to `COc1ccc(OCc2nc3ccc(C)cc3[nH]2)cc1`, 578 s; to `CCN1c2ccc(F)cc2C(=O)NC12CCN(C(=O)c1ccccc1C)CC2`, 835 s.
`CCOC(=O)Cn1c(=O)c2c(nc3n2CC(C)CN3c2ccc(OCC)cc2)n(C)c1=O` (stereo not drawn): the RP-LC retention time is 958 s.
To `COc1ccc(-c2ncc3c(n2)CCN(S(=O)(=O)c2cccc(C(F)(F)F)c2)C3)cc1` belongs 1110 s; to `COC(=O)CSc1nnc(CNC(=O)c2ccccc2F)n1Cc1ccccc1`, 683 s; to `Cc1ccc(-n2nc3c(=O)n(CCCC(=O)NC4CC4)nc(C)c3c2C)cc1`, 717 s.
To `COc1ccc(-c2noc(CN3N=NC4C(=O)N(c5ccc(OC)c(OC)c5)C(=O)C43)n2)c(OC)c1` (stereo not drawn) belongs 800 s; to `COC(=O)c1ccccc1NC(=O)Cn1ccn2nc(-c3ccccc3)c(CO)c2c1=O`, 884 s.
To `Cc1ccccc1-c1noc(C2CCCN2C(=O)Nc2cc(F)ccc2F)n1` (stereo not drawn) belongs 1080 s; to `O=C(Nc1nnc(-c2ccco2)o1)c1ccc2c(c1)CCCC2`, 775 s; to `COc1ccccc1Oc1c(NS(=O)(=O)c2ccc(C)cn2)nc(-c2ccncc2)nc1OC`, 870 s.
`CCCn1c(-c2cccc(C(=O)NCc3ccc(Br)cc3)c2)nc2cccnc21` returned an RP-LC retention time of 875 s.
In the case of `Cc1cc2nn(CC(=O)N3CCC(C)CC3)c(=O)n2c(-c2ccc(Cl)cc2)n1` it was 867 s; in that of `Cc1ccc(NC(=O)N2C[C@H](c3nc(-c4cccnc4)no3)[C@@H](C)C2)cc1`, 820 s.
The compound `Cc1nn(CC(=O)N2CCN(c3ccccc3)CC2)c(=O)c2nc(-c3ccccc3)sc12` yielded an RP-LC retention time of 924 s.
In turn, `COc1ccc(OC)c(NC(=O)CN2CC(C)Sc3ccccc32)c1` (stereo not drawn) had an RP-LC retention time of 1080 s.
To `O=C(NCC1CCN(Cc2cccs2)CC1)C1(c2ccccc2)CCOCC1` belongs 578 s.
`COCCC(=O)NCCC1CCN(C(=O)Nc2cc(F)cc(F)c2)CC1` had an RP-LC retention time of 695 s.
To `O=C(c1ccoc1)N1CCC(c2nc(-c3ccccc3)no2)C1` (stereo not drawn) belongs 773 s.
For `CCNC(=O)N1CC(n2cc(C(=O)N(C)CCCc3c(C)nn(C)c3C)nn2)C1`, the RP-LC retention time worked out at 569 s.
`Cc1ccc(Nc2cc(N3CCC(C(=O)N4CCSCC4)CC3)ncn2)cc1` registered an RP-LC retention time of 682 s.
In the case of `O=c1n(Cc2cccc(C(F)(F)F)c2)nc2ccc(S(=O)(=O)N3CCCC3)cn12` it was 938 s; in that of `CCCN1C(=O)COc2ccc(-c3noc(C(C)Oc4cccc(Cl)c4)n3)cc21` (stereo not drawn), 1260 s; in that of `Cc1cc(=O)n(CCOc2ccc(F)cc2)c(N2CCSCC2)n1`, 898 s.
With `CCC(=O)Nc1ccc(CCc2nc3ccc(C(=O)NC4CCCCC4)cc3[nH]2)cc1`, the RP-LC retention time stood at 647 s.
In the case of `CCS(=O)(=O)N1CC(=O)N(c2ccc(Cl)cc2)C(C)(C(=O)NC2CCCCCCC2)C1` (stereo not drawn) it was 993 s; in that of `CCc1cccc(C)c1NC(=O)Cn1cnc2nc(N3CCCC(C(=O)NC4CC4)C3)sc2c1=O` (stereo not drawn), 694 s; in that of `CC(=O)Nc1ccc2c(c1)CN(C(=O)c1c(F)cccc1F)C(C(=O)N1CCCC1)C2` (stereo not drawn), 873 s.
As to `Cc1ccc2c(=O)c(C(=O)N3CCCC3)cn(CC(=O)NC3CCCCC3)c2n1`, the RP-LC retention time was 676 s.
In the case of `Cc1cc(N2CCN(C(=O)c3ccco3)CC2)n2nc(C)c(-c3ccc(Cl)cc3)c2n1` it was 838 s; in that of `CC(C)Oc1ccc(CN2C(=O)C3(CCOCC3)CC2c2nnnn2C(C)(C)C)cc1` (stereo not drawn), 875 s.
As to `O=C(Cn1cnc(-c2noc(-c3ccc(F)cc3)n2)c1)NCc1ccc(F)cc1`, the RP-LC retention time was found to be 857 s.
To `CC1=C(c2cccc(Br)c2)S(=O)(=O)N=C1N1CCN(c2ccccn2)CC1` belongs 686 s; to `COc1cccc(C(=O)N2CCN(c3cc(-c4cccs4)[nH]n3)CC2)c1OC`, 722 s; to `Cc1ccc(C)c(NC(=O)Cn2nc3c(Oc4ccccc4C)nccn3c2=O)c1`, 908 s.
For the compound `O=C(Cc1ccc(Cl)cc1)N1CCc2nc(-c3ccc(Cl)cc3)ncc2C1`, the RP-LC retention time was 1130 s.
In the case of `CC(C)(C)NC(=O)CCc1ccc2nc(-c3ccccc3)[nH]c2c1` it was 632 s.
In the case of `Cc1c(NS(=O)(=O)CCOc2ccccc2)c(=O)n(-c2ccccc2)n1C` it was 729 s; in that of `COCCN1CCn2cc(S(=O)(=O)Nc3cccc(OC)c3)cc2C1=O`, 670 s.

These data come from the METLIN SMRT retention time set (Domingo-Almenara et al. 2019).
